Laboratory results taken from patent publication US20240081329A1, “NON-PROTEIN PHENYLALANINE ANALOGUES FOR INHIBITING CYANOBACTERIA AND PLANT GROWTH” (YISSUM RESEARCH DEVELOPMENT COMPANY OF THE HEBREW …, priority 2016, published 2024).
“Also recorded” adds a separate entry of the source.

Experiments:
cyanobacteria = assay: Viability experiments / toxicity to cyanobacteria; type: cell-based
Text: (§1) Thus, m-Tyr and its related Phe-analogues represent the first selective agents against cyanoblooming, a serious threat to both marine ecology and global economy.

algae (Chlorella) = assay: Effect on algae; type: cell-based
Text: as §1

[1] = test system: Arabidopsis thaliana (var. Columbia); assay: Arabidopsis seed-germination and seedlings establishment on MS medium with Phe-analogues; type: in vivo; settings: for appearance of treated seedlings (cotyledons, leaves): seedlings on MS medium with analogue; for effect on seed-germination: seeds sown on MS medium with 0-80 μM analogue
Text: FIGS. 2A-D are images depicting the effects of m-Tyr and several other phenylalanine (Phe)-analogs, modified in the meta position of the R-group, on Arabidopsis thaliana (var. Columbia) seed-germination and seedlings establishment. FIG. 2A—m-Tyr; FIG. 2B—Phe-analog “CH3”; FIG. 2C—Phe-analog “F”; FIG. 2D—Phe-analog “CF3”.
The germination of Arabidopsis thaliana plants is inhibited by the Phe-analogues of some embodiments of the invention—The efficiency of the developed compounds modified at the ‘meta’ position of the phenyl ring (FIG. 1) were analysed on Arabidopsis thaliana (var. Columbia). Following […] for 5 days at 4° C., Arabidopsis seeds were sown on Murashige-Skoog medium (MS) supplemented with increased concentrations (0-80 μM) of different Phe-analogues (in which “Y” was either “CH3”, “F” or “CF3”; see, FIG. 1). […] It should be noted that many more phe-analogues can be easily synthesized chemically based on the present teachings.

[2] = Movellan et al. 2014; cited from earlier work
algae (chlamydomonas) = assay: Inhibition of algae; type: cell-based; settings: even in the millimolar range
marine bacteria = assay: Effect on marine bacteria; type: cell-based
Text: as §1

A. thaliana [3] = assay: Combined treatment of Phe-analogues and glyphosate, A. thaliana root growth / seed-germination; type: in vivo, Arabidopsis thaliana
Procedure: FIG. 9 is an image depicting the effects of Phe-analogs, glyphosate and combination thereof on Arabidopsis thaliana (var. Columbia) seed-germination and seedlings establishment. “ZYX1”=m-Tyr (3′ OH phenylalanine); “ZYX2”=3′ fluoro phenylalanine; “RoundUp”=Glyphosate; “uM”=μicromolar.
For example, when inhibition of weed growth (e.g., A. thaliana) is achieved using an amount of 100 μM of glyphosate (based on TAIR database) when used in the absence of the effective amount of the compound depicted by Formula A, I or II, the concentration of glyphosate required for achieving the same growth inhibition of the weed in the presence of the effective amount of the compound depicted by Formula A, I or II is 10 μM of glyphosate, i.e., a reduction of about 90% in the concentration of glyphosate (e.g., using the ZYX1 compound as shown in FIG. 9).
Compared to herbicides (e.g., glyphosate) applied alone, the performance of herbicide mixtures can be either synergistic, or additive. Additivity is the combined action, which is equal to the total response predicted by taking into account the response of each herbicide applied alone. Synergism is the combined action of two herbicides where the observed response to their joint application is greater than the response predicted by Colby method [S. R. COLBY. Calculating Synergistic and Antagonistic Responses of Herbicide Combinations. […]

Microcystis aeruginosa = assay: Lake Kinneret water samples containing toxic cyanobacteria, bleaching and growth (OD=730); type: cell-based
Procedure: (§2) FIGS. 5A-E depict the effect of m-Tyr on killing cyanobacteria Microcystis aeruginosa (FIGS. 5A-B) and Synechocystis PCC 6803 (FIGS. 5C-E) from water samples. FIG. 5A is a graph depicting the effects of m-Tyr on lake Kinneret samples containing the highly toxic cyanobacteria, Microcystis aeruginosa. […] The growth rate was determined by the culture absorbance at OD=730. FIG. 5B—raw data of the water samples used in the experiment shown in FIG. 5A, in the presence of the indicated concentrations of m-Tyr. FIG. 5C—a graph depicting the effects of m-Tyr on the cyanobacteria, Synechocystis PCC 6803. The tests were performed with samples of Synechocystis PCC 6803, in the absence (0) or presence of various m-Tyr concentrations (1-1000 μM) as indicated. […] The growth rate was determined by the culture absorbance at OD=730. FIG. 5D—raw data of the water samples used in the experiment shown in FIG. 5C, in the presence of the indicated concentrations of m-Tyr. FIG. 5E—The cell mortality of the cyanobacteria Synechocystis PCC 6803 was evaluated by the numbers of colonies appearing on Agar plates.

[4] = test system: Arabidopsis thaliana (var. Columbia); settings: Bertin et al. 2007; cited from earlier work
Synechocystis PCC 6803 = assay: Growth inhibition / bleaching of cyanobacteria culture (absorbance OD=730, colonies on agar); type: cell-based; settings: for effect on growth / killing of the cyanobacteria: water samples, OD=730
Procedure: FIGS. 3A-B depict the inhibition of cyanobacteria by the phenylalanine analogue of some embodiments of the invention (“F”). FIG. 3A—a graph depicting the inhibition of growth of cyanobacteria Synechocystis PCC 6803 by increasing concentrations of the phenylalanine analogue of some embodiments of the invention. FIG. 3B—raw data of the results shown in FIG. 3A as detected after 150 hours.
as §2, with “aeruginosa. The tests were performed with samples collected from lake Kinneret, that are contaminated by its native toxic cyanobacteria Microcystis aeruginosa, in the absence (0) or presence of various m-Tyr concentrations (1-20 μM) as indicated.” for “aeruginosa.”

E. coli = assay: Antibacterial assay, bacterial growth by optical density (OD=600 nm); type: cell-based, Escherichia coli; settings: 0-1000 μM
Procedure: (§3) FIGS. 6A-B depict the effects of m-Tyr on the growth rates of model gram-positive and gram-negative bacteria. Bacterial growth was determined using optical density data (OD=600 nm) of E. coli and B. subtilis cultures at different time points and at different m-Tyr concentrations (0-1000 μM, the color index for m-Tyr concentration used is in the right side of each panel). FIG. 6A—E. coli; FIG. 6B—Bacillus subtilis; Note that cell growth of E. coli and Bacillus subtilis was not affected by m-Tyr, even when used at high concentrations of 1000 micromolar.

yeast = assay: Sensitivity of yeast cultures; type: cell-based; settings: even at concentrations as high as 15 mM; data not shown
Bacillus subtilis = assay: Antibacterial assay, bacterial growth by optical density (OD=600 nm); type: cell-based; settings: 0-1000 μM
Procedure: as §3

[5] = test system: glyphosate resistant Lolium rigidum Gaudin; assay: Combined treatment on glyphosate resistant weed, seed-germination and seedlings establishment; type: in vivo
Text: FIG. 10 is an image depicting the effects of Phe-analogs, on glyphosate resistant Lolium rigidum Gaudin (weed) seed-germination and seedlings establishment. ZYX1=m-Tyr; “RoundUp”=Glyphosate; “uM”=μicromolar.
In recent years, Lolium rigidum Gaudin (annual ryegrass) resistance to a number of herbicides has started to spread worldwide.

A. thaliana [6] = settings: absence of Formula A, I or II compound; based on TAIR database; cited from earlier work
[7] = type: physicochemical
Text: Although m-Tyr is an efficient allelopathic agent, its direct application for agriculture use is limited due to its instability in soil and aqueous environment [Movellan, J. et al. Synthesis and evaluation as biodegradable herbicides of halogenated analogs of L-meta-tyrosine. Environ. Sci. Pollut. Res. 21, 4861-4870 (2014)].

Structure (SMILES): N[C@@H](Cc1cccc(O)c1)C(=O)O [m-Tyr, 3-hydroxyphenylalanine]
- effect on / toxicity to cyanobacteria (cyanobacteria; very low μM range): highly susceptible; also recorded: strongly affecting; also recorded: toxic
- concentration as low as which addition to the growth media induces cell death (cyanobacteria; viability experiments): 0.5 µM
- effect on algae (algae (Chlorella)): no obvious effects
- appearance of treated seedlings (cotyledons, leaves) [1]: white cotyledons and yellowish leaves
- chloroplast morphology, microscopic analysis ([1]; seedlings treated with 10 μM, data not shown): altered chloroplast morphologies and less grana lamella
- effect on seed-germination [1]: strongly affected
- stability in soil and aqueous environment [2]: instability
- inhibition of algae (algae (chlamydomonas)): no inhibition effects
- effect on marine bacteria (marine bacteria): no obvious effects
- reduction in the concentration of glyphosate (A. thaliana [3]; combination of ZYX1 with glyphosate, FIG. 9): about 90%
- effect on growth / killing of the cyanobacteria (Microcystis aeruginosa; OD=730): very strong effect
- effect on growth / killing of the cyanobacteria (Microcystis aeruginosa; OD=730, listed as meta tyrosine): effective
- bleaching of the cyanobacteria culture (Microcystis aeruginosa; increasing concentrations (printed 0 mM to 10 mM)): bleaching of the culture
- phytotoxic activity (inhibition of germination of angiosperms, root growth) [4]: promising phytotoxic activity
- effect on growth / killing of the cyanobacteria (Synechocystis PCC 6803; listed as meta tyrosine): effective
- effect on cell growth (E. coli): did not affect cell growth; also recorded: no (or very little) effect; also recorded: not affected
- sensitivity of yeast cultures (yeast): not sensitive
- effect on cell growth (Bacillus subtilis): did not affect cell growth; also recorded: no (or very little) effect; also recorded: not affected

Structure (SMILES): O=C(O)CNCP(=O)(O)O [glyphosate]
- response of glyphosate resistant Lolium, applied separately ([5]; FIG. 10): resistance
- elevated glyphosate concentration to which the Lolium variety is resistant ([5]; local Israeli variety of Lolium): 60 folds of the recommended concentration
- amount of glyphosate achieving inhibition of weed growth, used alone (A. thaliana [6]): 100 µM
- concentration of glyphosate required for the same growth inhibition in combination (A. thaliana [3]; in the presence of the effective amount of the compound (ZYX1, FIG. 9)): 10 µM

Structure (SMILES): N[C@@H](Cc1cccc(F)c1)C(=O)O [F, 3′ fluoro phenylalanine]
- appearance of treated seedlings (cotyledons, leaves) [1]: white cotyledons and yellowish leaves
- effect on seed-germination [1]: strongly affected
- low concentration at which inhibition of growth rate is evident (Synechocystis PCC 6803; culture absorbance at OD=730): 6.25 µM
- bleaching of the cyanobacteria culture (Synechocystis PCC 6803; increasing concentrations, 0 to 50 μM, FIG. 3B after 150 hours): bleaching of the culture
- effect on growth / killing of the cyanobacteria (Synechocystis PCC 6803): effective; also recorded: very strong effect
- stability compared with the meta tyrosine molecule [7]: more stable
